From patent publication US6362236B1, “Inhibition of lipoprotein oxidation” (Warner-Lambert Company, priority 1997, dated 2002) come the findings set out here.

Assay [1] in a line: Free radical scavenging capacity (DPPH assay). Particulars: 20 μM; after 300 seconds of incubation. The procedure:
Free radical scavenging capacity—The free radical scavenging capacities of the drugs were analyzed by the 1,1-diphenyl-2-picryl-hydrazyl (DPPH) assay. Each drug (20 μM) was mixed with 3 mL of 0.1 nmol DPPH/1 (in ethanol). The time course of the change in the optical density at 517 nm was then kinetically monitored.

Assay [2] has as its system HDL. Description: CuSO4-induced HDL oxidation. As to conditions: for inhibition of HDL oxidation in the presence of CuSO4: 10 μM CuSO4; for CuSO4-Induced HDL Oxidation, MDA / CuSO4-Induced HDL Oxidation, Peroxides: 10 μM drug, 10 μM CuSO4, 4 hours at 37° C.; for CuSO4-Induced HDL Oxidation, MDA: Control 9.1 ± 0.1; for CuSO4-Induced HDL Oxidation, Peroxides: Control 122 ± 14.

Assay [3] deals with HDL-associated paraoxonase. Kind of assay: HDL-associated paraoxonase activity after CuSO4-induced HDL oxidation. As to conditions: for protection of HDL-associated paraoxonase: HDL oxidized with CuSO4, versus HDL oxidized without drug; for Paraoxonase Specific Activity: after CuSO4-induced HDL oxidation, before incubation 50±3. It is filed as biochemical, human. The text has this: . One unit of paraoxonase activity produces 1 nmol of p-nitrophenol per minute.

The subject of assay [4] is LDL. Description: LDL oxidation in all oxidative systems studied (CuSO4, AAPH, J-774A.1 macrophages), summary statements. It is filed as biochemical, human. Particulars: for inhibition of lipid peroxidation induced by copper ions, AAPH or J-774A.1 macrophages: pharmacological concentrations, summary over systems; for inhibition of LDL oxidation in all oxidative systems studied (in words): CuSO4, AAPH and J-774A.1 macrophage systems.

Assay [5] relates to LDL. Kind of assay: Copper ion (CuSO4)-induced LDL oxidation. As to conditions: for inhibition of LDL oxidation measured by the TBARS assay, CuSO4 system: 10 μM compound, 10 μM CuSO4, 4 hours at 37° C., LDL 100 μg of protein/mL; for LDL-associated peroxides content, CuSO4 system: control LDL 710±51. It is filed as biochemical, human.
Assay [6] relates to VLDL. Description: AAPH-induced VLDL oxidation. As to conditions: for inhibition of VLDL oxidation (TBARS), AAPH oxidative system: 10 μM compound, 4 hours at 37° C.; for VLDL-associated peroxide content, AAPH system: control VLDL 2169±329.
The test system of assay [7] is VLDL. Description: Copper ion (CuSO4)-induced VLDL oxidation. As to conditions: for inhibition of VLDL oxidation (TBARS), copper ion oxidative system: 10 μM compound, 4 hours at 37° C.; for VLDL-associated peroxide content, CuSO4 system: control VLDL 1818±333.
The procedure of assay [8]:
For the lipid peroxidation experiments, 500 μL of membrane vesicles were enriched with dilinoleoyl phosphatidylcholine (DLPC) at a concentration of 1.0 mg DLPC/mL. […] The extent of lipid peroxidation in each sample was determined by a spectrophotometric assay for lipid peroxides in serum lipoproteins using a color reagent known as CHOD-iodide (Merck, Darmstadt, FRG, Merck Cat. No. 14106). The color reagent has the following composition:
The concentration of triiodide formed was measured spectrophotometrically according to the formula (L=lipoprotein) [formula]
To each of the withdrawn aliquots of membrane vesicles was added 1.0 mL of the CHOD color reagent, and the sample was incubated in the absence of light for 4 hours. […] Lipid peroxide formation was measured in triplicate and values were expressed as mean±SD. The significance of differences between results from different experimental conditions was tested using the two-tailed student t-test.

Assay [9] deals with LDL. Kind of assay: AAPH (free radical generator)-induced LDL oxidation. The class given is biochemical, human. As to conditions: for inhibition of LDL oxidation measured by the TBARS assay, AAPH system: 10 μM compound, 5 mM AAPH, 4 hours at 37° C.; for LDL-associated peroxides content, AAPH system: control LDL 990±89.
For assay [10], the system named is J-774 A.1 murine macrophages-like cell line. Particulars: 10 μM compound; J-774 A.1 cells, 2 μM CuSO4, 20 hours.
Procedure: The macrophages were grown in Dulbecco's Modified Eagles Medium (DMEM) supplemented with 5% heat inactivated fetal calf serum (FCS). For the lipoprotein oxidation studies, cells (1×10^6/35 mm dish) were incubated with LDL (100 μg of protein/mL) in RPMI medium (without phenol red) in the presence of 2 μM CuSO4 for 20 hours at 37° C. in the incubator. Control LDL was also incubated in a cell-free system under the same conditions. At the end of the incubation period, the extent of LDL oxidation was measured in the medium (after centrifugation at 1000×g for 10 minutes) by the TBARS assay. Cell-mediated oxidation of LDL was calculated by subtracting the values obtained in the cell-free system from those obtained with the cells.
Assay [11] concerns VLDL. Kind of assay: Lipoprotein electrophoresis of VLDL after copper ion-induced oxidation. It is filed as biochemical, human. As to conditions: 10 μM CuSO4.
Procedure: Lipoprotein electrophoresis—Lipoproteins (100 μg protein/mL) were incubated without or with the drugs followed by oxidation in the presence of 10 μM CuSO4. Then, electrophoresis of the lipoproteins was performed on 1% agarose using a Hydragel-Lipo kit (Sebia, France).

Consider `Cc1ccc(C)c(OCCCC(C)(C)C(=O)O)c1` [gemfibrozil, reference compound], for which the “reduction in the absorbance at 517 nm (DPPH assay)” value (shortened to “reduction in the absorbance”) in [1] is “not gemfibrozil itself”. In addition, the “inhibition of HDL oxidation in the presence of CuSO4” value (shortened to “inhibition of HDL oxidation”) in [2] is on record as “no effect”. Besides, in assay [2] (Table 2), the “CuSO4-Induced HDL Oxidation, MDA” value came out at 8.2 ± 0.4 nmoL/mg HDL Protein and the “CuSO4-Induced HDL Oxidation, Peroxides” value is listed as 134 ± 13 nmoL/mg HDL Protein. In assay [3], the “protection of HDL-associated paraoxonase” value is “no effect”. The “Paraoxonase Specific Activity” value in assay [3] (Table 2, Control 26 ± 3) stood at 27 ± 5 nmoL/mg HDL Protein/min. Also, the “inhibition of lipid peroxidation induced by copper ions, AAPH or J-774A.1 macrophages” value in assay [4] is reported as “not inhibited”. Moreover, the “lag time for the initiation of LDL oxidation (conjugated dienes formation)” value in [5] (gemfibrozil experiment, LDL alone 60±9) was found to be 60 ± 9 min.

Take `CC(C)c1c(C(=O)Nc2ccccc2)c(-c2ccccc2)c(-c2ccc(F)cc2)n1CC[C@@H](O)C[C@@H](O)CC(=O)O` [atorvastatin, reference compound]: the “inhibition of VLDL oxidation (TBARS), AAPH oxidative system” value (shortened to “inhibition … AAPH oxidative system”) in assay [6] is on record as “no effect”. In addition, the “reduction in the absorbance” value in [1] is recorded as “not by atorvastatin”. Also, in [2] (Table 1), the “CuSO4-Induced HDL Oxidation, MDA” value amounted to 9.6 ± 0.5 nmoL/mg HDL Protein and the “CuSO4-Induced HDL Oxidation, Peroxides” value stood at 122 ± 15 nmoL/mg HDL Protein. Besides, the “Paraoxonase Specific Activity” value in assay [3] (Table 1, Control 26 ± 2) is 29 ± 4 nmoL/mg HDL Protein/min. Also, in [7], the “inhibition of VLDL oxidation (TBARS), copper ion oxidative system” value (from here on “inhibition … copper ion oxidative system”) was “no effect”. Moreover, the “inhibition of lipid peroxidation induced by copper ions, AAPH or J-774A.1 macrophages” value in assay [4] is “not inhibited”.

For `CC(C)c1c(C(=O)Nc2ccc(O)cc2)c(-c2ccccc2)c(-c2ccc(F)cc2)n1CC[C@@H](O)C[C@@H](O)CC(=O)O` [para-hydroxy metabolite, para-hydroxy atorvastatin], in assay [6], the “inhibition … AAPH oxidative system” value stood at 16% and the “VLDL-associated peroxide content, AAPH system” value is 1819±228 nmol VLDL protein. Also, the “inhibition of lipid peroxidation in membrane vesicles” value in [8] (10.0 μM compound) was determined as 80%. Moreover, the “comparative antioxidant potency versus Vitamin E and probucol” value in [8] (FIG. 12) is listed as “significantly more active”. In addition, the “antioxidant activity under atherosclerotic-like conditions of elevated membrane cholesterol” value in assay [8] (FIG. 13) is given as “increased”. The “levels of lipid peroxidation inhibited” value in assay [8] (at concentrations as low as 10.0 μM) is on record as > 10^2 μM. Besides, the “reduction in the absorbance” value in assay [1] is given as 28%. Besides, in assay [2], the “inhibition of HDL oxidation” value is on record as “about 50%”. Also, in assay [2] (Table 1), the “CuSO4-Induced HDL Oxidation, MDA” value turned out to be 4.5 ± 0.3 nmoL/mg HDL Protein and the “CuSO4-Induced HDL Oxidation, Peroxides” value is 65 ± 9 nmoL/mg HDL Protein. In addition, in assay [9], the “inhibition of LDL oxidation measured by the TBARS assay, AAPH system” value is on record as 34% and the “LDL-associated peroxides content, AAPH system” value is recorded as 624±38 nmol/mg LDL protein. The “inhibition of LDL oxidation measured by the TBARS assay, macrophage system” value in assay [10] turned out to be 46%. In addition, the “protection of HDL-associated paraoxonase” value in assay [3] is 27%. For the same molecule, the “Paraoxonase Specific Activity” value in [3] (Table 1, Control 26 ± 2) amounted to 33 ± 3 nmoL/mg HDL Protein/min. Moreover, in assay [7], the “inhibition … copper ion oxidative system” value came out at 37% and the “VLDL-associated peroxide content, CuSO4 system” value was found to be 1088±310 nmol/mg VLDL protein. For the same molecule, the “inhibition of LDL oxidation in all oxidative systems studied (in words)” value in assay [4] is recorded as “inhibited”. Also, in [5], the “inhibition of LDL oxidation measured by the TBARS assay, CuSO4 system” value is recorded as 60% and the “LDL-associated peroxides content, CuSO4 system” value is on record as 284±13 nmol/mg LDL protein.

In the case of vitamin E, the “reduction in the absorbance” value in [1] is 95%.

As to `CC(C)c1c(C(=O)Nc2ccccc2O)c(-c2ccccc2)c(-c2ccc(F)cc2)n1CC[C@@H](O)C[C@@H](O)CC(=O)O` [ortho-hydroxy metabolite, ortho-hydroxy atorvastatin], in assay [6], the “inhibition … AAPH oxidative system” value is recorded as 43% and the “VLDL-associated peroxide content, AAPH system” value is 1228±210 nmol VLDL protein. Besides, the “reduction in the absorbance” value in assay [1] was 37%. In addition, in assay [2], the “inhibition of HDL oxidation” value is recorded as “completely inhibited”. For the same molecule, in [2] (Table 1), the “CuSO4-Induced HDL Oxidation, MDA” value worked out at 0.2 ± 0.1 nmoL/mg HDL Protein and the “CuSO4-Induced HDL Oxidation, Peroxides” value is listed as 9 ± 1 nmoL/mg HDL Protein. The “lipoprotein electrophoretic migration of oxidized VLDL” value in [11] was “reduce lipoprotein electrophoretic migration”. Moreover, in [9], the “inhibition of LDL oxidation measured by the TBARS assay, AAPH system” value came to 44% and the “LDL-associated peroxides content, AAPH system” value is recorded as 554±32 nmol/mg LDL protein. In [10], the “inhibition of LDL oxidation measured by the TBARS assay, macrophage system” value is listed as 50%. The “protection of HDL-associated paraoxonase” value in assay [3] stood at 54%. In addition, the “Paraoxonase Specific Activity” value in assay [3] (Table 1, Control 26 ± 2) is recorded as 40 ± 4 nmoL/mg HDL Protein/min. For the same molecule, in assay [7], the “inhibition … copper ion oxidative system” value is listed as 79% and the “VLDL-associated peroxide content, CuSO4 system” value came to 242±22 nmol/mg VLDL protein. Besides, the “inhibition of LDL oxidation in all oxidative systems studied (in words)” value in [4] is listed as “inhibited”. In addition, in assay [5], the “inhibition of LDL oxidation measured by the TBARS assay, CuSO4 system” value is recorded as 73% and the “LDL-associated peroxides content, CuSO4 system” value stood at 192±15 nmol/mg LDL protein. In addition, the “inhibitory effect on copper ion-induced LDL oxidation (TBARS)” value in [5] (metabolite I of gemfibrozil 3 μM, ortho-hydroxy metabolite of atorvastatin 4 μM, alone or in combination, 10 μM CuSO4, 4 hours) amounted to 43%.
